pKd: −log10 of the molar value. Where two headings read alike, the source gives them in different places. Starred links: 1 amine or outer side, 2 acyl side, 3 side chain; linkers in the order of their positions; H or OH if unused. Non-standard residues stand in square brackets, D forms with d. Residues, ends and D or L forms follow the SMILES beside them. X2 = O=C(CN(CCc1ccc(-c2ccccc2)cc1)[*:1])[*:2]; Gly(N-piperonyl) = O=C(O)CNCc1ccc2c(c1)OCO2; X1 = CC(c1ccccc1)N(CC(=O)[*:2])[*:1]; Gly(N-2-aminoethyl) = NCCNCC(=O)O; Nleu = CC(C)CNCC(=O)O; Nlys = NCCCCNCC(=O)O
Legend:
Her2 protein = molecular target: T1, Her2 protein (Homo sapiens, UniProt P04626); test: Binding ability to Her2 protein by surface plasmon resonance imaging (SPRi)
T1 construct: purchased Sigma (USA)
Procedure: (§1) The SPRi apparatus described in the following examples was Plexera Kx5V2, Plexera Bioscience LLC, USA; and phosphate buffer saline (PBS), phosphoric acid, and proteinase K were prepared according to the product instruction manual.
Unless otherwise indicated, “Her2 protein” herein refers to the full-length Her2 protein.
The specific steps for testing the binding ability of the peptoid compound of Preparation Example 1 or the peptoid Derivative of Preparation Example 2 to the Her2 protein by surface plasmon resonance imaging techniques are shown as follows:
(1) dissolving the peptoid compound of Preparation Example 1 or the peptoid derivative of Preparation Example 2 into ddH2O at a concentration of 1 to 1000 μM to prepare a peptoid compound molecular probe sample to be spotted at a gradient concentration of 1-1000 μM;
(2) spotting the above peptoid compound molecular probe sample on a surface of a 3D chip (PlexArray HT, Plexera Bioscience, USA), in which each sample is repeated for 3 points, incubated at 4° C. for 12 hours, and washed by 10×PBS, 1×PBS and ultrapure water in sequence. The chip was then blocked with 1 M of aminoethanol hydrochloride for 30 minutes, then washed 5 times with ultrapure water, and finally dried with clean nitrogen; […]

[1] = molecular target: T2, Her2 protein in the serum (Homo sapiens, UniProt P04626); test: Detection of serum signals of breast cancer patients and normal persons by SPRi with the peptoid probe chip; assay type: binding; settings: serum diluted 1:5000; probe concentrations 80 μM, 400 μM, 2 mM, 10 mM, 50 mM; FIG. 3
T2 construct: introducing the serum of the patient with breast cancer and the normal person (diluted 1:5000 in volume); from tissue; host or cells: human serum (breast cancer patients with high Her2 expression, and normal persons)
Procedure: as §1
Unless otherwise indicated, “patients with breast cancer” herein refers to patients with breast cancer having a high Her2 expression.
The specific steps for testing the detection of the peptoid compound of Preparation Example 1 or the peptoid Derivative of Preparation Example 2 for the blood of the patients with breast cancer by surface plasmon resonance imaging techniques are shown as follows:
(1) in the same manner as in Experimental Example 1, preparing the same 3D chip as in Experimental Example 1, mounting the chip on the SPRi instrument, measuring SPRi angle and adjusting it to the optimal optical position, in which relevant detection points including sample points and blank points are selected in the detection area, and the experimental flow rate is set to 2 μL/s; […]

T1 sequence (P04626 23-1255): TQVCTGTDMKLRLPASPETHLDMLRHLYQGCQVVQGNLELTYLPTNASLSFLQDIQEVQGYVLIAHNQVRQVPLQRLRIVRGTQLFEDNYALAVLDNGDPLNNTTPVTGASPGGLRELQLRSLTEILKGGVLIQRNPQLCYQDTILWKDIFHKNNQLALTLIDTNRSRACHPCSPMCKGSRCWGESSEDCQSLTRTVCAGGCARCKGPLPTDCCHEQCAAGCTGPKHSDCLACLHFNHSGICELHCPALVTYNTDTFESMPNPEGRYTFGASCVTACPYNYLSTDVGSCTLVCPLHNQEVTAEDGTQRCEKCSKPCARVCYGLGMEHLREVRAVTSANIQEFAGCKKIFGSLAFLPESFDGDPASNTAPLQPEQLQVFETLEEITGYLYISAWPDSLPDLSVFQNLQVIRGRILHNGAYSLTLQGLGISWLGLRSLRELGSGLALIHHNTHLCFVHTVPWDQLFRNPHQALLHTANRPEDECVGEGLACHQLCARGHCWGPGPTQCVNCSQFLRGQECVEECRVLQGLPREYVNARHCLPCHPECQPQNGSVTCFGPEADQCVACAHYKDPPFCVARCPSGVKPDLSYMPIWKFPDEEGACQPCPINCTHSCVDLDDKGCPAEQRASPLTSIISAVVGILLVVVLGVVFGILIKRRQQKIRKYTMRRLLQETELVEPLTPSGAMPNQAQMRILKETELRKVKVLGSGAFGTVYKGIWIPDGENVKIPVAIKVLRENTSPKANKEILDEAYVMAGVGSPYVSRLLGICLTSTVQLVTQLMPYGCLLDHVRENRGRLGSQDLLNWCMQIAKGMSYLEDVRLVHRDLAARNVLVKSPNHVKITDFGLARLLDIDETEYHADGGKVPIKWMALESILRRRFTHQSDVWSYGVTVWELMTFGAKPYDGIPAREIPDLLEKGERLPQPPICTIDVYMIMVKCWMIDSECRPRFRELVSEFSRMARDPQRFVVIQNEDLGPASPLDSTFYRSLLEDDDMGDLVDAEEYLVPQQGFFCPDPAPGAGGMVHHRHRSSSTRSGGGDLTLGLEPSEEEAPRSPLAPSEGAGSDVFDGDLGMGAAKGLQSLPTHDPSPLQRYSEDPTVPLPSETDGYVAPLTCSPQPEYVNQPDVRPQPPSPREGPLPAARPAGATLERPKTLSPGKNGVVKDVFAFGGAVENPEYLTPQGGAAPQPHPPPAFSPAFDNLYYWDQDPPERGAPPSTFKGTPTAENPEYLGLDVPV
T2 sequence (P04626 23-647 limits assumed): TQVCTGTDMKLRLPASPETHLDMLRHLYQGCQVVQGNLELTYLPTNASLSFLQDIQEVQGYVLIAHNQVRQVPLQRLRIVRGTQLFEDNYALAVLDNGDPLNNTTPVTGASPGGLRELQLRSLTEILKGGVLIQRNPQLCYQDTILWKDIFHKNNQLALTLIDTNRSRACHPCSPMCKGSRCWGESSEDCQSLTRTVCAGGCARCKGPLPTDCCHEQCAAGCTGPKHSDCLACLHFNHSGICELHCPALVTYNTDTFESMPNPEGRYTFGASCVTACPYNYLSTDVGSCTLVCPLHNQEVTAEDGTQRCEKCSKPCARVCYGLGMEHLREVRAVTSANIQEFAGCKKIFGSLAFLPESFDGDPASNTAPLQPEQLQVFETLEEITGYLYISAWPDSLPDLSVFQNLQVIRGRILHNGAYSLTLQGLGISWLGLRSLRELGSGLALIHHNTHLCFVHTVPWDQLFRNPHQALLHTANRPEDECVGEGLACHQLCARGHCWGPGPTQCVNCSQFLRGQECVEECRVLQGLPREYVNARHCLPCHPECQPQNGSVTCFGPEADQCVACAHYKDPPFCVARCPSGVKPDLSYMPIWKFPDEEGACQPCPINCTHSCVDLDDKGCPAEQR

pKd (Her2 protein; probe spotted on 3D chip, Her2 at 2.632, 1.316, 0.658, 0.329 μM, fitted with BIAevalution 4.1, read-out: equilibrium dissociation constant KD): 7.21
pKd (Her2 protein; read-out: equilibrium dissociation constant KD in the binding kinetic constant with Her2 (order of magnitude)): ~8.00
Compound: CC(C)CN(CC(=O)N(CCCCN)CC(=O)N(CC(=O)N(CCCCN)CC(=O)N(CCCCN)CC(=O)N(CCN)CC(=O)N(CCc1ccc(-c2ccccc2)cc1)CC(N)=O)Cc1ccc2c(c1)OCO2)C(=O)CN(C(=O)CNCCCCN)C(C)c1ccccc1 (stereo not drawn) [Preparation Example 1] (H-[Nlys][X1][Nleu][Nlys][Gly(N-piperonyl)][Nlys][Nlys][Gly(N-2-aminoethyl)][X2]-NH2)
distinction of serum samples of breast cancer patients from normal persons (ΔAU signal) [1]: clearly distinguish the serum samples of the patients with breast cancer

From patent US10941180B2, “Peptoid compound, and derivative, salt, preparation method and use thereof” (BOE Technology Group Co., Ltd., priority 2018, dated 2021)
